# Assay results from US20240067693A1, “POLYPEPTIDES AND USES THEREOF” (MEDIMMUNE LIMITED, priority 2020, published 2024).
# Numbered stars: 1 amine (or outer) side, 2 acyl side, 3 side chain; on linkers, the order of the positions; unused ones are H or OH. Bridge positions count the residues as written; N and C are the ends. Square brackets hold non-standard residues; d marks the D form. Side chains are listed from the residue outwards. Peptide text beside a SMILES is read from it. * marks the point of attachment. C18 diacid = O=C(O)CCCCCCCCCCCCCCCCC(=O)*; γGlu = O=C(O)[C@H](CCC(=O)[*:2])N[*:1]; Aib = CC(C)(N)C(=O)O
# Columns and labels:
# [1] = target: T1, human amylin receptor (calcitonin receptor co-expressed with receptor activity modifying protein, RAMP3) (hAMYR3) (Homo sapiens, UniProt O60896+P30988); experiment: cAMP production in 1321N1 cells with stable recombinant expression of human amylin receptor (hAMYR3); assay type: cell-based; details: for Ratio (selectivity hAMYR vs hCTR, ratio of EC50 values at the two receptors): EC50 hCTR / EC50 hAMYR3; for EC50: cAMP, 1321N1 cells, assay buffer with 0.1% BSA, read-out: EC50 (pM) hAMYR3
# T1 construct: expressed in transfected cells
# T1 sequence (P30988 25-474): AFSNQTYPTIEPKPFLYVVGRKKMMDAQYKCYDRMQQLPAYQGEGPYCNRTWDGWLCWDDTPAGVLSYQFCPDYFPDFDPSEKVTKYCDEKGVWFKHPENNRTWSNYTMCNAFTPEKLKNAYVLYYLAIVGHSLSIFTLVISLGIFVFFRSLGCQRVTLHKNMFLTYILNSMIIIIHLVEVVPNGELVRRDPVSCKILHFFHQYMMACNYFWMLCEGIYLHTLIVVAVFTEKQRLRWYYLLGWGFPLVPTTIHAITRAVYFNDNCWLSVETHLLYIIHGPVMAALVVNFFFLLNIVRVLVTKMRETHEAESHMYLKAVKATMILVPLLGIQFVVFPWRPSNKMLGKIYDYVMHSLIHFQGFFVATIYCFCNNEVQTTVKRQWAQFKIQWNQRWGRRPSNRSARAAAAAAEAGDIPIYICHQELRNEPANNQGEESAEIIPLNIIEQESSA
# T1 sequence (O60896 24-148 partner): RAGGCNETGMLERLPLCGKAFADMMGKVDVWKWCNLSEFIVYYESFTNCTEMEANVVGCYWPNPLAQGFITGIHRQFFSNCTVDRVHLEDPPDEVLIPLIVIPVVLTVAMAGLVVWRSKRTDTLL
# Method in brief: (§1)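 Receptor-expressing cells (human receptors in 1321N1, rat receptors in HEK) incubated 30 min at room temperature with peptide in HBSS/HEPES pH 7.4, 0.1% BSA, 0.5 mM IBMX. cAMP read by HTRF; EC50 from 4-parameter fit as % of maximal amylin or calcitonin response.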
# [2] = target: T2, human calcitonin receptor (hCTR) (Homo sapiens, UniProt P30988); experiment: cAMP production in 1321N1 cells with stable recombinant expression of human calcitonin receptor (hCTR); assay type: cell-based; details: cAMP, 1321N1 cells, assay buffer with 0.1% BSA; read-out: EC50 (pM) hCTR
# T2 construct: expressed in transfected cells
# T2 sequence (P30988 25-474): T1 sequence (P30988 25-474)
# Method in brief: as §1
Structure (SMILES),"Ratio (selectivity hAMYR vs hCTR, ratio of EC50 values at the two receptors) [1]",EC50 [1] [pM],EC50 [2] [pM]
CC[C@H](C)[C@H](NC(=O)[C@@H]1CCCN1C(=O)CNC(=O)[C@H](Cc1ccccc1)NC(=O)[C@H](CC(N)=O)NC(=O)[C@@H]1CCCN1C(=O)[C@H](CO)NC(=O)[C@H](CO)NC(=O)[C@H](Cc1c[nH]cn1)NC(=O)C(C)(C)NC(=O)[C@H](CC(C)C)NC(=O)[C@H](Cc1ccccc1)NC(=O)[C@H](CC(N)=O)NC(=O)[C@H](C)NC(=O)[C@H](CC(C)C)NC(=O)[C@H](CCCNC(=N)N)NC(=O)[C@H](CCC(N)=O)NC(=O)[C@@H](NC(=O)[C@H](C)NC(=O)[C@@H]1CSSC[C@H](NC(=O)[C@H](CCCCN)NC(=O)[C@@H](N)CCCCNC(=O)CC[C@H](NC(=O)CCCCCCCCCCCCCCCCC(=O)O)C(=O)O)C(=O)N[C@@H](CC(N)=O)C(=O)N[C@@H]([C@@H](C)O)C(=O)N[C@@H](C)C(=O)N[C@@H]([C@@H](C)O)C(=O)N1)[C@@H](C)O)C(=O)N[C@@H](CC(C)C)C(=O)N1CCC[C@H]1C(=O)N1CCC[C@H]1C(=O)N[C@H](C(=O)N[C@@H](CC(N)=O)C(=O)N[C@H](C(=O)NCC(=O)N[C@@H](CO)C(=O)N[C@@H](CCC(=O)O)C(=O)N[C@H](C(=O)N[C@@H](Cc1ccc(O)cc1)C(N)=O)[C@@H](C)O)C(C)C)[C@@H](C)O [Peptide 139] (H-K([γGlu-C18 diacid])KCNTATCATQRLANFL[Aib]HSSPNFGPILPPTNVGSETY-NH2; disulfide 3-8; N-terminus assumed),3.7,285,1040
CC[C@H](C)[C@H](NC(=O)[C@@H]1CCCN1C(=O)CNC(=O)[C@H](Cc1ccccc1)NC(=O)[C@H](CC(N)=O)NC(=O)[C@H](CC(N)=O)NC(=O)[C@H](CO)NC(=O)[C@H](CO)NC(=O)[C@H](Cc1c[nH]cn1)NC(=O)C(C)(C)NC(=O)[C@H](CC(C)C)NC(=O)[C@H](Cc1ccccc1)NC(=O)[C@H](CC(N)=O)NC(=O)[C@H](C)NC(=O)[C@H](CC(C)C)NC(=O)[C@H](CCCNC(=N)N)NC(=O)[C@H](CCC(N)=O)NC(=O)[C@@H](NC(=O)[C@H](C)NC(=O)[C@@H]1CSSC[C@H](NC(=O)[C@@H](N)CCCCNC(=O)CC[C@H](NC(=O)CC[C@H](NC(=O)CCCCCCCCCCCCCCCCC(=O)O)C(=O)O)C(=O)O)C(=O)N[C@@H](CC(N)=O)C(=O)N[C@@H]([C@@H](C)O)C(=O)N[C@@H](C)C(=O)N[C@@H]([C@@H](C)O)C(=O)N1)[C@@H](C)O)C(=O)N[C@@H](CC(C)C)C(=O)N1CCC[C@H]1C(=O)N1CCC[C@H]1C(=O)N[C@H](C(=O)N[C@@H](CC(N)=O)C(=O)N[C@H](C(=O)NCC(=O)N[C@@H](CO)C(=O)N[C@@H](CC(N)=O)C(=O)N[C@H](C(=O)N[C@@H](Cc1ccc(O)cc1)C(N)=O)[C@@H](C)O)C(C)C)[C@@H](C)O [Peptide 127] (H-K([γGlu-γGlu-C18 diacid])CNTATCATQRLANFL[Aib]HSSNNFGPILPPTNVGSNTY-NH2; disulfide 2-7; N-terminus assumed),19.6,364,7130

# The remaining lines, values ahead:
"Ratio (selectivity hAMYR vs hCTR, ratio of EC50 values at the two receptors) [1]",EC50 [1] [pM],EC50 [2] [pM],Structure (SMILES)
8,801,6810,"CC[C@H](C)[C@H](NC(=O)[C@@H]1CCCN1C(=O)CNC(=O)[C@H](Cc1ccccc1)NC(=O)[C@H](CC(N)=O)NC(=O)[C@H](CC(N)=O)NC(=O)[C@H](CO)NC(=O)[C@H](CO)NC(=O)[C@H](Cc1c[nH]cn1)NC(=O)[C@@H](NC(=O)[C@H](CC(C)C)NC(=O)[C@H](Cc1ccccc1)NC(=O)[C@H](CC(N)=O)NC(=O)[C@H](C)NC(=O)[C@H](CC(C)C)NC(=O)[C@H](CCCNC(=N)N)NC(=O)[C@H](CCC(N)=O)NC(=O)[C@@H](NC(=O)[C@H](C)NC(=O)[C@@H]1CSSC[C@H](NC(=O)[C@H](CCCCN)NC(=O)[C@@H](N)CCCCNC(=O)CC[C@H](NC(=O)CCCCCCCCCCCCCCCCC(=O)O)C(=O)O)C(=O)N[C@@H](CC(N)=O)C(=O)N[C@@H]([C@@H](C)O)C(=O)N[C@@H](C)C(=O)N[C@@H]([C@@H](C)O)C(=O)N1)[C@@H](C)O)C(C)C)C(=O)NC(C)(C)C(=O)N1CCC[C@H]1C(=O)N1CCC[C@H]1C(=O)N[C@H](C(=O)N[C@@H](CC(N)=O)C(=O)N[C@H](C(=O)NCC(=O)N[C@@H](CO)C(=O)N[C@@H](CC(N)=O)C(=O)N[C@H](C(=O)N[C@@H](Cc1ccc(O)cc1)C(N)=O)[C@@H](C)O)C(C)C)[C@@H](C)O [Peptide 108, K(γE-C18diacid)K[CNTATC]ATQRLANFLVHSSNNFGPI(Aib)PPTNVGSNTY-amide] (H-K([γGlu-C18 diacid])KCNTATCATQRLANFLVHSSNNFGPI[Aib]PPTNVGSNTY-NH2; disulfide 3-8; N-terminus assumed)"
5,76,375,"CC[C@H](C)[C@H](NC(=O)[C@@H]1CCCN1C(=O)CNC(=O)[C@H](Cc1ccccc1)NC(=O)[C@H](CC(N)=O)NC(=O)C(C)(C)NC(=O)[C@H](CO)NC(=O)[C@H](CO)NC(=O)[C@H](Cc1c[nH]cn1)NC(=O)[C@@H](NC(=O)[C@H](CC(C)C)NC(=O)[C@H](Cc1ccccc1)NC(=O)[C@H](CC(N)=O)NC(=O)[C@H](C)NC(=O)[C@H](CC(C)C)NC(=O)[C@H](CCCNC(=N)N)NC(=O)[C@H](CCC(N)=O)NC(=O)[C@@H](NC(=O)[C@H](C)NC(=O)[C@@H]1CSSC[C@H](NC(=O)[C@@H](N)CCCCNC(=O)CC[C@H](NC(=O)CCCCCCCCCCCCCCCCC(=O)O)C(=O)O)C(=O)N[C@@H](CC(N)=O)C(=O)N[C@@H]([C@@H](C)O)C(=O)N[C@@H](C)C(=O)N[C@@H]([C@@H](C)O)C(=O)N1)[C@@H](C)O)C(C)C)C(=O)N[C@@H](CC(C)C)C(=O)N1CCC[C@H]1C(=O)N1CCC[C@H]1C(=O)N[C@H](C(=O)N[C@@H](CCCNC(=N)N)C(=O)N[C@H](C(=O)NCC(=O)N[C@@H](CO)C(=O)N[C@@H](CC(N)=O)C(=O)N[C@H](C(=O)N[C@@H](Cc1ccc(O)cc1)C(N)=O)[C@@H](C)O)C(C)C)[C@@H](C)O [Peptide 63, K(γE-C18diacid)[CNTATC]ATQRLANFLVHSS(Aib)NFGPILPPTRVGSNTY-amide] (H-K([γGlu-C18 diacid])CNTATCATQRLANFLVHSS[Aib]NFGPILPPTRVGSNTY-NH2; disulfide 2-7; N-terminus assumed)"
10,1050,10400,"CC[C@H](C)[C@H](NC(=O)[C@@H]1CCCN1C(=O)CNC(=O)[C@H](Cc1ccccc1)NC(=O)[C@H](CC(N)=O)NC(=O)C(C)(C)NC(=O)[C@H](CO)NC(=O)[C@H](CO)NC(=O)[C@H](Cc1c[nH]cn1)NC(=O)[C@H](CCC(=O)O)NC(=O)[C@H](CC(C)C)NC(=O)[C@H](Cc1ccccc1)NC(=O)[C@H](CC(N)=O)NC(=O)[C@H](C)NC(=O)[C@H](CC(C)C)NC(=O)[C@H](CCCNC(=N)N)NC(=O)[C@H](CCC(N)=O)NC(=O)[C@@H](NC(=O)[C@H](C)NC(=O)[C@@H]1CSSC[C@H](NC(=O)[C@H](CCCCN)NC(=O)[C@@H](N)CCCCNC(=O)CC[C@H](NC(=O)CCCCCCCCCCCCCCCCC(=O)O)C(=O)O)C(=O)N[C@@H](CC(N)=O)C(=O)N[C@@H]([C@@H](C)O)C(=O)N[C@@H](C)C(=O)N[C@@H]([C@@H](C)O)C(=O)N1)[C@@H](C)O)C(=O)N[C@@H](CC(C)C)C(=O)N1CCC[C@H]1C(=O)N1CCC[C@H]1C(=O)N[C@H](C(=O)N[C@@H](CC(N)=O)C(=O)N[C@H](C(=O)NCC(=O)N[C@@H](CO)C(=O)N[C@@H](CC(N)=O)C(=O)N[C@H](C(=O)N[C@@H](Cc1ccc(O)cc1)C(N)=O)[C@@H](C)O)C(C)C)[C@@H](C)O [Peptide 39, K(γE-C18diacid)K[CNTATC]ATQRLANFLEHSS(Aib)NFGPILPPTNVGSNTY-amide] (H-K([γGlu-C18 diacid])KCNTATCATQRLANFLEHSS[Aib]NFGPILPPTNVGSNTY-NH2; disulfide 3-8)"
9.5,414,3950,CC[C@H](C)[C@H](NC(=O)[C@@H]1CCCN1C(=O)CNC(=O)[C@H](Cc1ccccc1)NC(=O)[C@H](CC(N)=O)NC(=O)[C@H](CC(N)=O)NC(=O)[C@H](CO)NC(=O)[C@H](CO)NC(=O)[C@H](Cc1c[nH]cn1)NC(=O)C(C)(C)NC(=O)[C@H](CC(C)C)NC(=O)[C@H](Cc1ccccc1)NC(=O)[C@H](CC(N)=O)NC(=O)[C@H](C)NC(=O)[C@H](CC(C)C)NC(=O)[C@H](CCCNC(=N)N)NC(=O)[C@H](CCC(N)=O)NC(=O)[C@@H](NC(=O)[C@H](C)NC(=O)[C@@H]1CSSC[C@H](NC(=O)[C@H](CCCCN)NC(=O)[C@@H](N)CCCCNC(=O)CC[C@H](NC(=O)CCCCCCCCCCCCCCCCC(=O)O)C(=O)O)C(=O)N[C@@H](CC(N)=O)C(=O)N[C@@H]([C@@H](C)O)C(=O)N[C@@H](C)C(=O)N[C@@H]([C@@H](C)O)C(=O)N1)[C@@H](C)O)C(=O)N[C@@H](CC(C)C)C(=O)N1CCC[C@H]1C(=O)N1CCC[C@H]1C(=O)N[C@H](C(=O)N[C@@H](CC(N)=O)C(=O)N[C@H](C(=O)NCC(=O)N[C@@H](CO)C(=O)N[C@@H](CCCNC(=N)N)C(=O)N[C@H](C(=O)N[C@@H](Cc1ccc(O)cc1)C(N)=O)[C@@H](C)O)C(C)C)[C@@H](C)O [Peptide 141] (H-K([γGlu-C18 diacid])KCNTATCATQRLANFL[Aib]HSSNNFGPILPPTNVGSRTY-NH2; disulfide 3-8; N-terminus assumed)
